In test [1] the test system is MC38-hFolRα tumors. Put plainly: Anti-tumor activity in mice bearing established MC38-hFolRα tumors. As to conditions: Day 0 and 4; for tumor growth inhibition (TGI): compared to vehicle control on day 10, p<0.0001. It is filed as in vivo, mouse. The source says:
This example evaluates the response of MC38-hFolRα tumors to treatment with Compound 2, a TLR 7 agonist.
Female C57BL/6 mice at 9-10 weeks of age were anesthetized with isoflurane and implanted subcutaneously into the right hind flank with 1×10^6 MC38-hFolRα (murine colon adenocarcinoma cells engineered to express hFolRα). Randomization and start of treatment was initiated when the average tumor size was approximately 150 mm^3 (designated as Day 0 post-treatment). Animals received intratumoral (IT) injections of Compound 2 on Day 0 and Day 4 (q4d×2). Compound 2 was dissolved in DMSO and dosing solutions were formulated in PBS. Body weight and tumor size were monitored 3×/week. The primary study endpoint was reached when the mean tumor size of the vehicle control group was >1,200 mm^3.

For test [2], the system named is mouse splenocytes. Kind of test: Cytokine release (ELISA). It is filed as cell-based. As to conditions: 48 hr, 10 μg/mL LPS-RS. As for the experimental part: (§1) This example evaluates the ability of Compound 10 to induce cytokine release in human PBMCs, cyno PBMCs and mouse splenocytes. Compound 1 and resiquimod:
(§2) Human and cyno PBMCs, mouse splenocytes were isolated as described in previous example. The day of the assay, 300 k of PBMC or splenocytes in 50 μL of culture medium were seeded in 96-well cell culture plates. 50 μl of the test articles (formulated at 2× of starting concentration) were then added into the well. The cell mixtures were co-cultured in the presence of test articles and 10 μg/mL LPS-RS for 24 hr (human PBMCs) or 48 hr (cyno PBMCs and mouse splenocytes). Cytokines released were measured by ELISA using cell culture medium.
A general note: ELISA stands for enzyme-linked immunosorbent assay.

Test [3] relates to human PBMCs. Kind of test: Cytokine release (ELISA). Type of test: cell-based. As to conditions: 24 hr, 10 μg/mL LPS-RS. On the procedure:
as §1, §2

Consider `CCCCCNc1nc(N)nc2ccn(Cc3ccc(CN4CC(NC)C4)cc3OC)c12` [Compound 2, 5-(2-methoxy-4-((3-(methylamino)azetidin-1-yl)methyl)benzyl)-N4-pentyl-5H-pyrrolo[3,2-d]pyrimidine-2,4-diamine], for which the figures for the “tumor growth inhibition (TGI)” value in test [1] (0.1 mg/kg intratumoral), in test [1] (0.5 mg/kg intratumoral) and in test [1] (2 mg/kg intratumoral) were 55%, 61% and 80%, respectively. In addition, in test [1] (0.1-2 mg/kg intratumoral), the “MC38-hFolRα tumor growth delay” value is “significantly delayed”.
For `CCCCCNc1nc(N)nc2ccn(Cc3ccc(CN4CC5(CNCCO5)C4)cc3OC)c12` [Compound 10, 5-[[2-methoxy-4-(5-oxa-2,8-diazaspiro[3.5]nonan-2-ylmethyl)phenyl]methyl]-N4-pentyl-pyrrolo[3,2-d]pyrimidine-2,4-diamine], the IL-6 release entry in test [2] (FIG. 6A) and in test [3] (FIG. 4A) was “strong” each time. Besides, the MCP-1 release result in test [2] (FIG. 6B) and in test [3] (FIG. 4B) was “strong” in each case. Besides, in test [2] (FIG. 6C), the TNFa release result is “strong”. Also, the IP-10 release entry in test [2] (FIG. 6D) was “strong”. Also, the IL1Ra release entry in test [3] (FIG. 4C) is recorded as “strong”.

For the origin of these results see patent US12534465B2, “5H-pyrrolo[3,2-d]pyrimidine-2,4-diamino compounds and antibody conjugates thereof” (SUTRO BIOPHARMA, INC., priority 2019, dated 2026).
